In the assay the test system is MDA-MB-231. The experiment in a line: Inhibition of cell proliferation of human MDA-MB-231 cells at 2.5 uM by crystal violet staining based colony formation assay. The assay is classed as functional.

Results on one compound are retold here after ChEMBL document CHEMBL6127034, “Design, synthesis and biological evaluation of a novel PAK1 degrader for the treatment of triple negative breast cancer” (Bioorg Med Chem, 2024).

The source made the active and inactive calls. No cut-off for these calls is given here.

For the compound `Cc1ncsc1-c1ccc([C@H](C)NC(=O)[C@@H]2C[C@@H](O)CN2C(=O)[C@@H](NC(=O)CCc2cn(CCCCCCCn3c(=O)c(-c4ccc(Cl)cc4Cl)cc4cnc(NC5CC5)nc43)nn2)C(C)(C)C)cc1`, the inhibition result was “Active”.
